Assay results reported in US7972800B2, “Screening method for binding property or signal transduction alterations” (Takeda Pharmaceutical Company Limited, priority 2003, dated 2011).

Columns and labels:
Format in all cases: cell-based
human GPR39 = target: T1, human GPR39 (Homo sapiens, UniProt O43194); set-up: expressed in transfected cells; host or cells: CHO cells, vector pAKKO-111H; conditions: FLIPR, Fluo-3AM; metal salt added, 10-300 μM (FIGS. 1-4)
T1 sequence (O43194 1-453): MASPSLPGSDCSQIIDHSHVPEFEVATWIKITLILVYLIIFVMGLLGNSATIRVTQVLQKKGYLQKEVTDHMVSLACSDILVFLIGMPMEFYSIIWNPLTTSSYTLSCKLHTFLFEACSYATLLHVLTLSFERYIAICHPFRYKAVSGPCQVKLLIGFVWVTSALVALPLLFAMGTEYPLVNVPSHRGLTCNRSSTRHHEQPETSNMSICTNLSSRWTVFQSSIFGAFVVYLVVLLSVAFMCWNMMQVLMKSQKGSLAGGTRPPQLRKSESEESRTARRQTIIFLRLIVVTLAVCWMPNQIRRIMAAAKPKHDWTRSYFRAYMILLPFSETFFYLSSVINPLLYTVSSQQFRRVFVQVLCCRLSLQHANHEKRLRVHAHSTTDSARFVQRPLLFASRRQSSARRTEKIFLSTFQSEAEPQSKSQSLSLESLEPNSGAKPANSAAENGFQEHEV
Protocol: The human GPR39-GFP expression vector-transfected CHO cell line produced in EXAMPLE 1 (CHO/hGPR39-GFP) was diluted in 3×10^4 cells/100 μl. The dilution was dispensed onto a Black walled 96-well plate (Costar) in 100 μl each per well, followed by incubation overnight in a CO2 incubator. Changes in intracellular calcium levels were determined by the following method using FLIPR (Molecular Device). In 21 μl of DMSO (DOJIN), 50 μg of Fluo-3AM (DOJIN) was dissolved and an equal volume of 20% Pluronic acid (Molecular Probes) was added to the solution. After mixing them, the resulting mixture was added to 10.6 ml of assay buffer [prepared by adding 20 ml of 1M HEPES (pH 7.4) (DOJIN) to HBSS (Invitrogen Corp.) and further adding to the solution 10 ml of a solution mixture, which mixture was prepared by dissolving 710 mg of Probenecid (Sigma) in 5 ml of 1N NaOH and then adding thereto 5 ml of the HBSS/HEPES solution above] supplemented with 105 μl of fetal calf serum to prepare a fluorescent dye solution. The medium in the cell plate was removed. Immediately thereafter, the fluorescent dye solution was dispensed in 100 μl each/well and the cells were incubated in a CO2 incubator for an hour so that the fluorescent dye was taken up into the cells. The cells after the incubation were washed with the assay buffer described above and set on FLIPR. Compounds of metal elements to be added to the cells were diluted to the respective concentration with the assay buffer. The dilutions were dispensed onto plates for ligands and set on FLIPR. Following the pre-treatment above, changes in intracellular calcium levels after addition of metal elements were determined by FLIPR to study agonist activities.

rat GPR39 = conditions: FLIPR, Fluo-3AM (FIG. 9 through FIG. 13)
Protocol: (§1) Using the CHO cell line where rat GPR39 was stably expressed, the agonist activity of metal ions was detected using FLIPR in terms of the intracellular calcium-increasing reaction as an indicator. The CHO cell line used, wherein rat GPR39 was stably expressed, was cultured in HAM's αMEM (Invitrogen Corp.) containing 10% calf fetal serum (Invitrogen Corp.). On the day before the assay was conducted, the human GPR39-expressing CHO cell line was cultured in a culture flask to reach a confluent state. After washing with PBS, the cells were scraped off using trypsin and centrifuged for recovery. The cells were then suspended in medium and the suspension was adjusted to 3×10^5 cells/ml. Then, the suspension was dispensed onto a black walled 96-well plate (Costar) in 100 μl each per well, followed by incubation overnight in a CO2 incubator.
(§2) On the day when the assay was conducted, various test samples were added to the cells and the changes of intracellular calcium levels in this case were determined by FLIPR (Molecular Device). In order to determine the changes in intracellular calcium levels on FLIPR, the cells were pre-treated by the following procedures. First, for the purpose of adding a fluorescent dye Fluo-3AM (DOJIN) to the cells or washing the cells immediately before the FLIPR assay, an assay buffer was prepared. A solution was prepared by adding 20 ml of 1M HEPES (pH 7.4) (DOJIN) to 1000 ml of HBSS (Invitrogen Corp.) (hereinafter HBSS/HEPES solution), to which solution was added 10 ml of a solution mixture obtained by dissolving 710 mg of Probenecid (Sigma) in 5 ml of 1N NaOH and further adding 5 ml of HBSS/HEPES solution thereto. The resulting solution was used as the assay buffer. Next, 50 μg of Fluo-3AM was dissolved in 21 μl of DMSO (DOJIN) and an equal volume of 20% Pluronic acid (Molecular Probes) was added to and mixed with the solution. The mixture was then added to 10.6 ml of the assay buffer supplemented with 105 μl of fetal calf serum to prepare a fluorescent dye solution. The medium for the CHO cells where human GPR39 was stably expressed was removed. Immediately thereafter, the fluorescent dye solution was dispensed in 100 μl each/well and the cells were incubated in a CO2 incubator for an hour so that the fluorescent dye was taken up into the cells. The cells after the incubation was washed with the assay buffer described above and set on FLIPR. A test sample to be added to the CHO cells where rat GPR39 was stably expressed was prepared using the assay buffer and set on FLIPR at the same time. Following the pre-treatment above, the changes in intracellular calcium levels after the addition of each test sample were determined by FLIPR.

mouse GPR39 = target: T2, mouse GPR39 (Mus musculus, UniProt Q5U431, T447P); conditions: FLIPR, Fluo-3AM (FIG. 14 through FIG. 18)
T2 construct: expressed in transfected cells; host or cells: CHO cells, vector pAKKO-111H
T2 sequence (Q5U431 1-456 T447P): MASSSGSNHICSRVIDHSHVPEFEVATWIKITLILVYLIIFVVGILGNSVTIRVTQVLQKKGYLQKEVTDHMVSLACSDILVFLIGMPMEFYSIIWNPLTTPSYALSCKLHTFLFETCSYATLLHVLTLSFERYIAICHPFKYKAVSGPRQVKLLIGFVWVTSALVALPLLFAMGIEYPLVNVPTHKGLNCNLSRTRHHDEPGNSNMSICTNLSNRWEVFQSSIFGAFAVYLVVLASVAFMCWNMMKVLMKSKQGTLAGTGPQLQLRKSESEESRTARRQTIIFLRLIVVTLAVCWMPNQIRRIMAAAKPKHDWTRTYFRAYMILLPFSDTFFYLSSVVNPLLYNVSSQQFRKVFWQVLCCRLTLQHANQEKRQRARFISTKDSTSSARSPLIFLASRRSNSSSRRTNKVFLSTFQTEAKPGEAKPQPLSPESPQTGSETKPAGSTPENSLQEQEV
Protocol: as §1, §2
Using the CHO cell line where mouse GPR39 was stably expressed, the agonist activity of metal ions was detected on FLIPR in accordance with the procedures described in EXAMPLE 5, in terms of the intracellular calcium-increasing reaction as an indicator.

[Cl][Cu][Cl] [copper chloride]
dose-dependently increased: intracellular calcium levels of CHO/hGPR39-GFP (human GPR39) | intracellular calcium levels of CHO/rGPR39 (rat GPR39) | intracellular calcium levels of CHO/mGPR39 (mouse GPR39)

[Cl][Ni][Cl] [nickel chloride]
dose-dependently increased: intracellular calcium levels of CHO/hGPR39-GFP (human GPR39) | intracellular calcium levels of CHO/rGPR39 (rat GPR39) | intracellular calcium levels of CHO/mGPR39 (mouse GPR39)
